Laboratory results: ChEMBL document CHEMBL4052726, “Design, synthesis, and biological evaluation of aryl N-methoxyamide derivatives as GPR119 agonists” (Bioorg Med Chem Lett, 2017)
Calls of active or inactive are those of the source. The rule behind the calls is not given here.

Legend:
[1] = target: T1, Glucose-dependent insulinotropic receptor (Homo sapiens) (UniProt Q8TDV5); test: Activation of human GPR119 expressed in CHOK1 cells harboring CRE-luciferase at 1 uM after 6 hrs by luciferase reporter gene assay relative to GSK1292263; assay type: functional, cell-based
T1 sequence (whole entry): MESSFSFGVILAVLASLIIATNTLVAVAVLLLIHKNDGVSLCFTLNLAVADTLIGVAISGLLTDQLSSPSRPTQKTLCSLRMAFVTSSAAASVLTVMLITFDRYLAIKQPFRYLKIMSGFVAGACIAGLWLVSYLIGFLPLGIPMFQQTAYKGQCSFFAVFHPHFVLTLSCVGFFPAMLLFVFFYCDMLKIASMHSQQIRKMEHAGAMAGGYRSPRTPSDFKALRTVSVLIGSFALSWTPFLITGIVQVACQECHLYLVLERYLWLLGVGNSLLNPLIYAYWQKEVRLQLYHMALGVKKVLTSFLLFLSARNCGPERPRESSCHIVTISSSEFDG

[2] = target: T2, Glucose-dependent insulinotropic receptor (Homo sapiens, UniProt Q8TDV5); test: Agonist activity at human GPR119 expressed in CHOK1 cells harboring CRE-luciferase after 6 hrs by luciferase reporter gene assay; assay type: functional, cell-based
T2 sequence (Q8TDV5 whole entry): T1 sequence (whole entry)

Mus musculus = test: Decrease in plasma glucose AUC in C57BL/6 mouse at 30 to 50 mg/kg administered orally followed by glucose challenge after 30 mins by OGTT; assay type: functional, organism-based
[3] = target: T1, Glucose-dependent insulinotropic receptor (Homo sapiens); test: Agonist activity at GPR119 in human NCI-H716 cells assessed as increase in forskolin-induced GLP-1 secretion by ELISA; assay type: cell-based

| Activity [1] [%] | EC50 [2] [µM] | Activity [3] | SMILES | Activity (Mus musculus) |
| --- | --- | --- | --- | --- |
| 82 | 0.156 |  | CON(C)C(=O)c1ccc(-c2csc3c(N(C)C4CCN(C(=O)OC(C)C)CC4)ncnc23)cc1 |  |
| 73 | 0.321 |  | CC(C)(C)OC(=O)N1CCC(COc2ccc(-c3ccc(C(=O)N4CCCCO4)cc3)nc2)CC1 |  |
| 95 | 0.319 |  | CCc1cnc(N2CCC(COc3ccc(-c4ccc(C(=O)N(C)OC)cc4)nc3)CC2)nc1 |  |
| 66 |  |  | CN(c1ncnc2c(-c3ccc(C(=O)N4CCCCO4)cc3)csc12)C1CCN(C(=O)OC(C)(C)C)CC1 |  |
| 106 | 0.171 |  | CON(C)C(=O)c1ccc(-c2ccc(OCC3CCN(C(=O)OC(C)(C)C)CC3)cn2)cc1 |  |
| 82 |  |  | CONC(=O)c1ccc(-c2csc3c(N(C)C4CCN(C(=O)OC(C)(C)C)CC4)ncnc23)cc1 |  |
| 114 | 0.073 |  | CON(C)C(=O)c1ccc(-c2ccc(OCC3CCN(C(=O)OC(C)(C)C)CC3)cn2)cc1F |  |
| 80 |  |  | CCc1cnc(N2CCC(N(C)c3ncnc4c(-c5ccc(C(=O)N(C)OC)cc5)csc34)CC2)nc1 |  |
| 73 |  |  | CCONC(=O)c1ccc(-c2csc3c(N(C)C4CCN(C(=O)OC(C)(C)C)CC4)ncnc23)cc1 |  |
| 80 | 0.155 |  | CON(C)C(=O)c1ccc(-c2ccc(OCC3CCN(C(=O)OC(C)C)CC3)cn2)cc1 |  |
| 100 | 0.064 |  | CON(C)C(=O)c1ccc(-c2csc3c(OC4CCN(C(=O)OC(C)(C)C)CC4)ncnc23)cc1 |  |
| 87 | 0.053 |  | CON(C)C(=O)c1ccc(-c2csc3c(N(C)C4CCN(C(=O)OC(C)(C)C)CC4)ncnc23)cc1F |  |
| 81 | 0.083 |  | CN(c1ncnc2c(-c3ccc(C(=O)NOCc4ccccc4)cc3)csc12)C1CCN(C(=O)OC(C)(C)C)CC1 |  |
| 53 |  |  | CC(C)OC(=O)N1CCC(N(C)c2ncnc3c(-c4ccc(C(=O)NOCc5ccccc5)cc4)csc23)CC1 |  |
| 41 |  |  | CCc1cnc(N2CCC(N(C)c3ncnc4c(-c5ccc(C(=O)NOCc6ccccc6)cc5)csc34)CC2)nc1 |  |
| 100 | 0.105 |  | CCc1cnc(N2CCC(Oc3ncnc4c(-c5ccc(C(=O)N(C)OC)c(F)c5)csc34)CC2)nc1 |  |
| 100 | 0.077 | Active | CCc1cnc(N2CCC(COc3ccc(-c4ccc(C(=O)N(C)OC)c(F)c4)nc3)CC2)nc1 | Active |
| 82 | 0.199 |  | CCc1cnc(N2CCC(Oc3ncnc4c(-c5ccc(C(=O)N(C)OC)cc5)csc34)CC2)nc1 |  |
| 90 | 0.067 |  | CON(C)C(=O)c1ccc(-c2csc3c(N(C)C4CCN(C(=O)OC(C)C)CC4)ncnc23)cc1F |  |
| 69 |  |  | CC(C)(C)OC(=O)N1CCC(COc2ccc(-c3ccc(C(=O)NOCc4ccccc4)cc3)nc2)CC1 |  |
| 96 | 0.092 |  | CON(C)C(=O)c1ccc(-c2ccc(OCC3CCN(C(=O)OC(C)C)CC3)cn2)cc1F |  |
| 81 |  |  | CCc1cnc(N2CCC(N(C)c3ncnc4c(-c5ccc(C(=O)N(C)OC)c(F)c5)csc34)CC2)nc1 |  |
| 105 | 0.098 |  | CON(C)C(=O)c1ccc(-c2csc3c(N(C)C4CCN(C(=O)OC(C)(C)C)CC4)ncnc23)cc1 |  |
| 88 | 0.057 |  | CON(C)C(=O)c1ccc(-c2csc3c(OC4CCN(C(=O)OC(C)(C)C)CC4)ncnc23)cc1F |  |
